For orientation: IC50 means the concentration at which inhibition is half-maximal.

Bounds are passed on as bounds.

The target in one assay is T1, full length active recombinant SYK enzyme (Homo sapiens, UniProt P43405).
T1 construct: full length active recombinant SYK enzyme (Millipore, Calif.); purchased Millipore
Description: Inhibition of Syk tyrosine phosphorylation activity (LANCE TR-FRET). The assay is classed as biochemical. To be noted: Table 3; 1 nM SYK, 100 μM ATP; read-out: Syk IC50 code. Here is the method:
The in vitro and in vivo human syk activities of the inventive compounds can be determined by various procedures known in the art, such as a test for their ability to inhibit the activity of human plasma syk. […] Inhibition of Syk Tyrosine Phosphorylation Activity Potency of candidate molecules for inhibiting syk tyrosine phosphorylation activity is assessed by measuring the ability of a test compound to inhibit syk-mediated tyrosine phosphorylation of a syk-specific substrate. SYK tyrosine phosphorylation activity is measured using the LANCETM Technology developed by Perkin Elmer Life and Analytical Sciences (Boston, Mass.). LANCETM refers to homogeneous time resolved fluorometry applications using techniques such as time-resolved fluorescence resonance energy transfer assay (TR-FRET) (see generally for procedures in Perkin Elmer Application Note-How to Optimize a Tyrosine Kinase Assay Using Time Resolved Fluorescence-Based LANCE Detection, wwww.perkinelmer.com/lifesciences). The assay principle involves detection of a phosphorylated substrate using energy transfer from a phosphospecific europium-labeled antibody to streptavidin-allophycocyanin as an acceptor. To test the ability of candidate molecules to inhibit SYK tyrosine phosphorylation activity, molecules are reconstituted in 30% DMSO and serially diluted 1:3 with the final dilution containing DMSO in the absence of the candidate molecule. The final DMSO concentration in the assay is 3%. Kinase assays are performed as a two part reaction. The first reaction is a kinase reaction and which comprises of a candidate molecule, full length active recombinant SYK enzyme (Millipore, Calif.) and biotin-labeled SYK-specific substrate biotin-[…]-OH. The second reaction involves termination of the kinase reaction and the simultaneous addition of the detection reagents-europium-labeled anti-phosphotyrosine reagent (Eu-W1024-PY100, Perkin Elmer, Boston, Mass.) and Streptavidin-Allophycocyanin detection reagent (SA-APC, Prozyme, Calif.). The kinase reaction is performed in a black U-bottom 96-well microtitre plate. […] The reaction is allowed to proceed for 1 hour at room temperature. […] The detection reagents are added to the reaction mixture at the following dilutions-1:500 for Eu-W1024-PY100 and 1:250 for SA-APC. The kinase reaction is terminated by the addition of 50 μL quench buffer containing the detection reagents. The detection is allowed to proceed for 1 hr at room temperature. Detection of the phosphorlated substrate in the absence and presence of inhibitors is measured in the TR-FRET instrument, Analyst HT ([…], Sunnyvale, Calif.) and the condition for measurements are set up using CriterionHost Release 2.0 ([…], Sunnyvale, Calif.). […] IC50s were derived by non-linear regression analysis.
Turning to `CN1C(=O)CCc2cc(Nc3nc(N)c4c(-c5ccc(F)cc5)c[nH]c4n3)ccc21` [Example 113, 6-(4-Amino-5-(4-fluorophenyl)-7H-pyrrolo[2,3-d]pyrimidin-2-ylamino)-1-methyl-3,4-dihydroquinolin-2(1H)-one], the IC50 was > 1000 nM.

Take `CCCCOC(C)c1c[nH]c2nc(Nc3ccc4cn[nH]c4c3)nc(NC3CC3)c12` (stereo not drawn) [Example 41, 5-(1-butoxyethyl)-N4-cyclopropyl-N2-(1H-indazol-6-yl)-7H-pyrrolo[2,3-d]pyrimidine-2,4-diamine]: the IC50 was in the range of 100 to 1000 nM.

Turning to `COCCNc1nc(Nc2ccc3cn[nH]c3c2)nc2[nH]ccc12` [Example 89, N^2-(1H-indazol-6-ylamino)-N^4-(2-methoxyethyl)-7H-pyrrolo[2,3-d]pyrimidine-2,4-diamine], the IC50 is 100 to 1000 nM.

Turning to `NCC1CCN(c2nc(Nc3ccc(C(=O)O)cc3)ncc2F)CC1` [Example 131, 4-(4-(4-(aminomethyl)piperidin-1-yl)-5-fluoropyrimidin-2-ylamino)benzoic acid], the IC50 was in the range of 10 to 100 nM.

In the case of `CC(=O)N1CCN(c2ccc(Nc3ncc(F)c(N4CCN(C(=O)CC#N)CC4)n3)cc2)CC1` [Example 137, 3-(4-(2-(4-(4-acetylpiperazin-1-yl)phenylamino)-5-fluoropyrimidin-4-yl)piperazin-1-yl)-3-oxopropanenitrile], the IC50 was > 1000 nM.

Turning to `CNc1nc(Nc2ccc(N3CCN(C(C)=O)CC3)cc2)nc2[nH]cc(-c3ccncc3)c12` [Example 2, 1-(4-(4-(4-(methylamino)-5-(pyridin-4-yl)-7H-pyrrolo[2,3-d]pyrimidin-2-ylamino)phenyl)piperazin-1-yl)ethanone], the IC50 lay in the range of 100 to 1000 nM.

Take `CC(=O)N1CCN(c2ccc(Nc3nc(NC4CC4)c4c(-c5ccncc5)c[nH]c4n3)cc2)CC1` [Example 4, 1-(4-(4-(4-(cyclopropylamino)-5-(pyridin-4-yl)-7H-pyrrolo[2,3-d]pyrimidin-2-ylamino)phenyl)piperazin-1-yl)ethanone]: the IC50 lay in the range of 10 to 100 nM.

Turning to `CN(CC(=O)O)S(=O)(=O)c1ccc(Nc2nc(NC3CCC3)c3cc[nH]c3n2)cc1` [Example 55, 2-(4-(4-(cyclobutylamino)-7H-pyrrolo[2,3-d]pyrimidin-2-ylamino)-N-methylphenylsulfonamido)acetic acid], the 50% inhibitory concentration (IC50) fell in the range of 10 to 100 nM.

With `O=S(=O)(c1ccc(Nc2nc(NC3CCC3)c3cc[nH]c3n2)cc1)N1CCC(O)CC1` [Example 52, 1-(4-(4-(cyclobutylamino)-7H-pyrrolo[2,3-d]pyrimidin-2-ylamino)phenylsulfonyl)piperidin-4-ol], the IC50 was 10 to 100 nM.

For the compound `Cc1cc2c(NC3CCC3)nc(Nc3ccc4cn[nH]c4c3)nc2[nH]1` [Example 59, N4-cyclobutyl-N2-(1H-indazol-6-yl)-6-methyl-7H-pyrrolo[2,3-d]pyrimidine-2,4-diamine], the IC50 was > 1000 nM.

With `N[C@H]1CC[C@@H](Nc2nc(Nc3ccc4c(c3)CCC(=O)N4)ncc2-c2ccncc2)CC1` [Example 143, 6-(4-((1s,4s)-4-aminocyclohexylamino)-5-(pyridin-4-yl)pyrimidin-2-ylamino)-3,4-dihydroquinolin-2(1H)-one], the IC50 is > 1000 nM.

Turning to `O=C1CCc2cc(Nc3ncc(F)c(N4CCC(CO)CC4)n3)ccc2N1` [Example 39, 6-(5-fluoro-4-(4-(hydroxymethyl)piperidin-1-yl)pyrimidin-2-ylamino)-3,4-dihydroquinolin-2(1H)-one], the IC50 is 100 to 1000 nM.

Regarding `CC(=O)N(C)c1ccc(Nc2nc(NC3CCCCC3N)c3cc[nH]c3n2)cc1` (stereo not drawn) [Example 63, N-(4-(4-(2-aminocyclohexylamino)-7H-pyrrolo[2,3-d-]pyrimidin-2-ylamino)phenyl)-N-methylacetamide], the IC50 was > 1000 nM.

As for “6-(5-fluoro-4-(3-oxopiperazin-1-yl)pyrimidin-2-ylamino)-3,4-dihydroquinolin-2(1H)-one [Example 123]”, the IC50 was > 1000 nM.

As for `NC(=O)CNS(=O)(=O)c1ccc(Nc2nc(NC3CCC3)c3cc[nH]c3n2)cc1` [Example 54, 2-(4-(4-(cyclobutylamino)-7H-pyrrolo[2,3-d]pyrimidin-2-ylamino)phenylsulfonamido)acetamide], the IC50 was in the range of 10 to 100 nM.

In the case of `CC(=O)N(C)c1ccc(Nc2nc(Nc3cccc(CN)c3)c3cc[nH]c3n2)cc1` [Example 97, N-(4-(4-(3-(aminomethyl)phenylamino)-7H-pyrrolo[2,3-d]pyrimidin-2-ylamino)phenyl)-N-methylacetamide], the IC50 is 100 to 1000 nM.

For `CC(=O)N1CCN(c2ccc(Nc3nc(NC4CC4)c4c(C#N)c[nH]c4n3)cc2)CC1` [Example 107, 2-(4-(4-acetylpiperazin-1-yl)phenylamino)-4-(cyclopropylamino)-7H-pyrrolo[2,3-d]pyrimidine-5-carbonitrile], the IC50 was 10 to 100 nM.

Regarding `c1cc2c(NCCCN3CCOCC3)nc(Nc3ccc4cn[nH]c4c3)nc2[nH]1` [Example 61, N2-(1H-indazol-6-yl)-N4-(3-morpholinopropyl)-7H-pyrrolo[2,3-d]pyrimidine-2,4-diamine], the IC50 is > 1000 nM.

As to `CC(=O)N(C)c1ccc(Nc2nc(NC3CC3)c3c(C#N)c[nH]c3n2)cc1` [Example 105, N-(4-(5-cyano-4-(cyclopropylamino)-7H-pyrrolo[2,3-d]pyrimidin-2-ylamino)phenyl)-N-methylacetamide], the IC50 lay within 10 to 100 nM.

Consider `NC(=O)c1c[nH]c2nc(Nc3ccc4c(c3)CCC(=O)N4)nc(NC3CC3)c12` [Example 108, 4-(cyclopropylamino)-2-(2-oxo-1,2,3,4-tetrahydroquinolin-6-ylamino)-7H-pyrrolo[2,3-d]pyrimidine-5-carboxamide], for which the IC50 was > 1000 nM.

Take `CC(=O)N1CCN(c2ccc(Nc3ncc(Cl)c(N4CCC(CN)CC4)n3)cc2)CC1` [Example 122, 1-(4-(4-(4-(4-(aminomethyl)piperidin-1-yl)-5-chloropyrimidin-2-ylamino)phenyl)piperazin-1-yl)ethanone]: the half-inhibitory concentration (IC50) lay within 10 to 100 nM.

`CCCCOC(=O)CC1CCN(c2nc(Nc3ccc4c(c3)CCC(=O)N4)nc3[nH]ccc23)CC1` [Example 119, Butyl 2-(1-(2-(2-oxo-1,2,3,4-tetrahydroquinolin-6-ylamino)-7H-pyrrolo[2,3-d]pyrimidin-4-yl)piperidin-4-yl)acetate]: the IC50 was > 1000 nM.

On to `Nc1nc(Nc2ccc3cn[nH]c3c2)nc2[nH]ccc12` [Example 79, N^2-(1H-indazol-6-yl)-7H-pyrrolo[2,3-d]pyrimidin-2,4-diamine], for which the IC50 was in the range of 100 to 1000 nM.

In the case of `NC(=O)CNc1nc(Nc2ccc3cn[nH]c3c2)nc2[nH]ccc12` [Example 83, 2-(2-(1H-indazol-6-ylamino)-7H-pyrrolo[2,3-d]pyrimidin-4-ylamino)acetamide], the IC50 is 100 to 1000 nM.

With `NC(=O)c1cnc(-n2ncc3ccc(N)c(Cl)c32)nc1NC1CC1` [Example 7, 2-(6-amino-7-chloro-1H-indazol-1-yl)-4-(cyclopropylamino)pyrimidine-5-carboxamide], the IC50 lay in the range of 100 to 1000 nM.

Take `O=C(O)CC1CCN(c2nc(Nc3ccc4c(c3)CCC(=O)N4)nc3[nH]ccc23)CC1` [Example 120, 2-(1-(2-(2-oxo-1,2,3,4-tetrahydroquinolin-6-ylamino)-7H-pyrrolo[2,3-d]pyrimidin-4-yl)piperidin-4-yl)acetic acid]: the IC50 is > 1000 nM.

For `CC(=O)N1CCN(c2ccc(Nc3ncc(F)c(N4CCC(CO)CC4)n3)cc2)CC1` [Example 38, 1-(4-(4-(5-fluoro-4-(4-(hydroxymethyl)piperidin-1-yl)pyrimidin-2-ylamino)phenyl)piperazin-1-yl)ethanone], the IC50 was > 1000 nM.

Still in this assay, the particulars now being: Table 4; 1 nM SYK, 100 μM ATP; read-out: syk IC50.
With `O[C@H]1CCN(c2nc(Nc3ccc(N4CCNCC4)cc3)nc3[nH]ccc23)C1` [Example 12, (S)-1-(2-(4-(piperazin-1-yl)phenylamino)-7H-pyrrolo[2,3-d]pyrimidin-4-yl)pyrrolidin-3-ol], the IC50 is > 1000 nM.

As for `CC(=O)N1CCN(c2ccc(Nc3ncc(C(N)=O)c(N4CCCC(CO)C4)n3)cc2)CC1` (stereo not drawn) [2-(4-(4-acetylpiperazin-1-yl)phenylamino)-4-(3-(hydroxymethyl)piperidin-1-yl)pyrimidine-5-carboxamide], the IC50 fell in the range of 100 to 1000 nM.

In the case of `NCC1CCCCN1c1nc(Nc2ccc3cn[nH]c3c2)ncc1F` (stereo not drawn) [Example 36, N-(4-(2-(aminomethyl)piperidin-1-yl)-5-fluoropyrimidin-2-yl)-1H-indazol-6-amine], the IC50 is > 1000 nM.
